From patent publication US9655980B2, “Theranostic platform for targeted cancer therapy and drug delivery monitoring” (University of Pittsburgh—Of the Commonwealth System of …, priority 2012, dated 2017) come the findings set out here.

In series [1] the test system is wild-type mouse malignant astrocytoma DBT (wt-DBT) cells. The experiment in a line: In vitro cytotoxicity, hemocytometer-based trypan blue dye exclusion. Conditions: for cell viability: 2×10^−7 and 1×10^−5 M, 48 h. Format: cell-based. The text has this:
FIG. 4 is a graph showing the results cell viability tests of QR-G1-COOH and QR-G2-COOH on the wt-DBT cell line. Values are presented as mean±standard deviation.
The in vitro cytotoxicity of QR-G1-COOH and QR-G2-COOH against wild-type mouse malignant astrocytoma DBT (wt-DBT) cells was investigated using a hemocytometer-based trypan blue dye exclusion method.

The nature of series [2]: Photostability: NIR absorbance under ambient light. Type of series: physicochemical. Conditions: for decrease of absorbance after exposure to ambient light: 2 hours, absorption maximum wavelength; for NIR absorbance remaining: 31 days ambient light; for photostability compared with ICG: ambient light. As to the method: FIG. 3 is a graph showing the photostability of QR-G1-COOH, QR-G2-COOH and ICG in DMSO. Samples were exposed to the ambient light and the change of optical density at absorption maximum wavelength was monitored over time. All samples have the initial absorbance of about 1.2 at the absorption maximum wavelength. The signals were normalized against the values at 0 hour.
To evaluate the photostability of QR-G1-COOH and QR-G2-COOH, the NIR absorbance of these molecules exposed to ambient light was monitored and the results were compared with that of the FDA approved NIR dye, indocyanine green (ICG).

A short description of series [3]: UV-vis absorption and emission spectra (photophysical properties). Type of series: physicochemical. The text has this:
FIG. […]
Similar observations have been reported on extended perylenediimides. […] This fluorescence enhancement in pluronic compared to water can be explained by the disruption of the non-fluorescent dye aggregates by pluronic, which formed micelles with dye monomers inside. The strong absorption in the NIR region and weak emission may render QR-G1-COOH to a promising photoacoustic imaging agent.

Series [4] can be described thus: Solubility / hydrophilicity observations. Format: physicochemical. To be noted: for hydrophilicity: as sodium salts. The text has this: The most challenging step encountered during the synthesis of QR-G1-COOH and QR-G2-COOH was the ring cyclization of biperylene 6. Many quaterrylenes reported were synthesized through a base-assisted cyclodehydrogenation reaction using molten KOH/glucose, tert-BuOK/DBN in diglyme, or K2CO3 in ethanolamine. However, these reaction systems are not applicable for the synthesis of quaterrylene 7 because of the high reactivity of aldehyde under the harsh basic conditions. Recently, Müllen's group reported milder conditions for the preparation of uaterrylenedicarboximides and rylenediimides by the Lewis acids FeCl3/CH3NO2 and AlCl3/chlorobenzene. […] The following reduction of aldehyde groups on 7 by NaBH4 yielded benzyl alcohol 8 with a relatively low yield (32%). Coupling quaterrylene 8 with dendrons 9 and 10 provided the dendrimers QR-G1-triester and QR-G2-triester in 35% and 28% yields after purification by column chromatography.

Series [5] in a line: UV-vis absorption and emission spectra (photophysical properties). Format: physicochemical. To be noted: DMSO; for Fluorescence quantum yield Φ: ICG in methanol as standard.

Values joined by “and” are separate entries in the source; they are usually repeats but may differ in a detail not shown here. Identical values can stand only once.

For the compound `C[S+](C)[O-]` [DMSO, reference compound], the “live cells (positive control group)” value in series [1] (wt-DBT cells, 5% DMSO, after 48 h) is 66.9%.

Take `CC1(C)C(/C=C/C=C/C=C/C=C2\N(CCCCS(=O)(=O)O)c3ccc4ccccc4c3C2(C)C)=[N+](CCCCS(=O)(=O)[O-])c2ccc3ccccc3c21` [ICG, indocyanine green, reference compound]: the “decrease of absorbance after exposure to ambient light” value (“decrease of absorbance after exposure” below) in series [2] (DMSO) came to 48%. The “absorbance observed after illumination” value in series [2] (DMSO, 3 days ambient light) was “no significant absorbance”.

As to `CC(C)c1cccc(C(C)C)c1N1C(=O)c2cc(Oc3ccc(COC(=O)CCC(=O)NC(CCC(=O)O)(CCC(=O)O)CCC(=O)O)cc3)c3c4ccc5c6ccc7c8c(Oc9ccc(COC(=O)CCC(=O)NC(CCC(=O)O)(CCC(=O)O)CCC(=O)O)cc9)cc9c%10c(cc(Oc%11ccc(COC(=O)CCC(=O)NC(CCC(=O)O)(CCC(=O)O)CCC(=O)O)cc%11)c(c%11ccc(c%12ccc(c%13c(Oc%14ccc(COC(=O)CCC(=O)NC(CCC(=O)O)(CCC(=O)O)CCC(=O)O)cc%14)cc(c2c3%13)C1=O)c4c5%12)c6c7%11)c%108)C(=O)N(c1c(C(C)C)cccc1C(C)C)C9=O` [QR-G1-COOH], the “fluorescence in pluronic compared to water” value in series [3] (0.4% wt/wt of pluronic) is on record as “large fluorescence enhancement”. Besides, in series [3] (methanol), the “ε (molar extinction coefficient)” value is 146000 M⁻¹ cm⁻¹ and 143000 M⁻¹ cm⁻¹; the λabs was 771 nm and 728 nm. In series [3] (methanol, excited at 720 nm), this compound yielded a λem of 813 nm. For the same compound, in series [3] (water), the ε was 0.74 10^5 M^−1 cm^−1 and the λabs worked out at 739 nm. Also, the λem in series [3] (water, pluronic ~0.4 wt %/wt) stood at 807 nm. Further, in series [3] (water, excited at 720 nm), the fluorescence in water result is on record as “nearly no fluorescence”. Also, in series [2] (DMSO), the “decrease of absorbance after exposure” value is reported as “no significant absorbance change” and the NIR absorbance remaining stood at 85%. In addition, the “absorbance change after illumination” value in series [2] (DMSO, 3 days ambient light) is 1%. In addition, in series [2], the “photostability compared with ICG” value is “dramatically more photostable than ICG”. In addition, the “cytotoxicity to DBT cells” value in series [1] was “low cytotoxicity”. The cell viability entry in series [1] (wt-DBT cells) is given as “about 90%”. Moreover, the hydrophilicity entry in series [4] is on record as “high hydrophilicity”. In series [5], the λem is reported as 816 nm and the “Fluorescence quantum yield Φ” value came to 0.11%.

Take `CC(C)c1cccc(C(C)C)c1N1C(=O)c2cc(Oc3ccc(COC(=O)CCC(=O)NC(CCC(=O)OC(C)(C)C)(CCC(=O)OC(C)(C)C)CCC(=O)OC(C)(C)C)cc3)c3c4ccc5c6ccc7c8c(Oc9ccc(COC(=O)CCC(=O)NC(CCC(=O)OC(C)(C)C)(CCC(=O)OC(C)(C)C)CCC(=O)OC(C)(C)C)cc9)cc9c%10c(cc(Oc%11ccc(COC(=O)CCC(=O)NC(CCC(=O)OC(C)(C)C)(CCC(=O)OC(C)(C)C)CCC(=O)OC(C)(C)C)cc%11)c(c%11ccc(c%12ccc(c%13c(Oc%14ccc(COC(=O)CCC(=O)NC(CCC(=O)OC(C)(C)C)(CCC(=O)OC(C)(C)C)CCC(=O)OC(C)(C)C)cc%14)cc(c2c3%13)C1=O)c4c5%12)c6c7%11)c%108)C(=O)N(c1c(C(C)C)cccc1C(C)C)C9=O` [QR-G1-triester]: the “solubility in organic solvents” value in series [4] (toluene, dichloromethane, chloroform, ethyl acetate, methanol) is given as “highly soluble”.

With `CC(C)c1cccc(C(C)C)c1N1C(=O)c2cc(Oc3ccc(COC(=O)CCC(=O)NC(CCC(=O)NC(CCC(=O)O)(CCC(=O)O)CCC(=O)O)(CCC(=O)NC(CCC(=O)O)(CCC(=O)O)CCC(=O)O)CCC(=O)NC(CCC(=O)O)(CCC(=O)O)CCC(=O)O)cc3)c3c4ccc5c6ccc7c8c(Oc9ccc(COC(=O)CCC(=O)NC(CCC(=O)NC(CCC(=O)O)(CCC(=O)O)CCC(=O)O)(CCC(=O)NC(CCC(=O)O)(CCC(=O)O)CCC(=O)O)CCC(=O)NC(CCC(=O)O)(CCC(=O)O)CCC(=O)O)cc9)cc9c%10c(cc(Oc%11ccc(COC(=O)CCC(=O)NC(CCC(=O)NC(CCC(=O)O)(CCC(=O)O)CCC(=O)O)(CCC(=O)NC(CCC(=O)O)(CCC(=O)O)CCC(=O)O)CCC(=O)NC(CCC(=O)O)(CCC(=O)O)CCC(=O)O)cc%11)c(c%11ccc(c%12ccc(c%13c(Oc%14ccc(COC(=O)CCC(=O)NC(CCC(=O)NC(CCC(=O)O)(CCC(=O)O)CCC(=O)O)(CCC(=O)NC(CCC(=O)O)(CCC(=O)O)CCC(=O)O)CCC(=O)NC(CCC(=O)O)(CCC(=O)O)CCC(=O)O)cc%14)cc(c2c3%13)C1=O)c4c5%12)c6c7%11)c%108)C(=O)N(c1c(C(C)C)cccc1C(C)C)C9=O` [QR-G2-COOH], the “quantum yield relative to QR-G1-COOH” value in series [3] (Table 1) was “roughly two times higher”. Further, in series [3] (methanol), the “ε (molar extinction coefficient)” value stood at 121000 M⁻¹ cm⁻¹. Besides, the λem in series [3] (methanol, excited at 720 nm) was 815 nm. Further, the ε in series [3] (methanol, values in order of the listed absorption bands) is reported as 1.21 10^5 M^−1 cm^−1. Moreover, in series [3] (water), the ε was 0.56 10^5 M^−1 cm^−1 and the λabs stood at 743 nm. For the same compound, the λem in series [3] (water, pluronic ~10 wt %/wt) stood at 809 nm. Moreover, in series [2] (DMSO), the “decrease of absorbance after exposure” value was “no significant absorbance change” and the NIR absorbance remaining was found to be 77%. In series [2] (DMSO, 3 days ambient light), the “absorbance change after illumination” value is 3%. Also, the “photostability compared with ICG” value in series [2] was “dramatically more photostable than ICG”. The “cytotoxicity to DBT cells” value in series [1] is on record as “low cytotoxicity”. Also, in series [1] (wt-DBT cells), the cell viability entry was “about 90%”. In series [4], the hydrophilicity entry is recorded as “high hydrophilicity”. In addition, in series [5], the λem is 816 nm and the “Fluorescence quantum yield Φ” value turned out to be 0.32%.
